Data on eleven compounds can be found in ChEMBL document CHEMBL1201862, “PubChem BioAssay data set” (2004).

Among the test systems are OVCAR-3; SR; HCT-116; SK-MEL-5; SK-MEL-28; MOLT-4; SF-295; EKVX; HOP-62; PC-3; SF-539; UO-31; NCI-H460; MDA-MB-231; RXF 393; T47D; HCT-15; SW-620; MCF7; NCI-H226.
Common to all, as to test: inhibition of tumour cell growth, NCI panel, 48 h

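Assay format: 96-well plates, 48-hour exposure. Here, GI50 denotes the concentration required for 50% inhibition of growth.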 Activity calls are given as the source filed them. Rule as the data show it: active = GI50 up to about 1.1 µM and inactive = higher.

For `O=C1/C(=C\c2cccc(Oc3ccccc3)c2)S(=O)(=O)C(c2ccccc2)N1c1cccc(Cl)c1` (centres undefined), the GI50 in the assay with OVCAR-3 was 36.2 µM (inactive); with SR, 20.9 µM (inactive); in the assay on HCT-116, 29.4 µM (inactive); with SK-MEL-5 it was 43.9 µM (inactive); with SK-MEL-28 it was > 100 µM (inactive); in the assay on MOLT-4, 30.1 µM (inactive). The GI50 with SF-295 is 39.4 µM (inactive); with EKVX, 51.1 µM (inactive); in the assay with HOP-62 it was 98.2 µM (inactive); with PC-3, > 100 µM (inactive); with SF-539, 36.1 µM (inactive); with UO-31, 34.7 µM (inactive). For the same compound, the GI50 in the assay with NCI-H460 was 88.3 µM (inactive); with MDA-MB-231, > 100 µM (inactive); in the assay on RXF 393, 36.3 µM (inactive); in the assay on T47D, 46.8 µM (inactive); in the assay on HCT-15 it was 40.6 µM; in the assay with SW-620, 25.1 µM (inactive). The GI50 in the assay on MCF7 was 30.2 µM (inactive).

For the compound `O=C(Cc1ccc([N+](=O)[O-])cc1)OCC#CCOC(=O)Cc1ccc([N+](=O)[O-])cc1`, the GI50 in the assay with OVCAR-3, with SR, in the assay on SK-MEL-5, in the assay with MOLT-4, in the assay with SF-295 and with EKVX was > 10 µM (inactive) each time. The GI50 with PC-3, in the assay on SF-539, in the assay on UO-31, in the assay with NCI-H460, with MDA-MB-231 and in the assay on RXF 393 was > 10 µM (inactive) each time. Further, the GI50 in the assay on T47D is > 10 µM (inactive); in the assay with HCT-15 it was greater than 10 µM; in the assay on SW-620, > 10 µM (inactive); in the assay with MCF7 it was > 10 µM (inactive).

`c1csc(-c2cc(-c3ccsc3)cs2)c1`: the GI50 was 27.2 µM (inactive) in the assay with OVCAR-3; 14.4 µM (inactive) in the assay on SR; > 100 µM (inactive) with HCT-116; > 100 µM (inactive) with SK-MEL-5; > 100 µM (inactive) with SK-MEL-28; 87.1 µM (inactive) with MOLT-4. Besides, the GI50 with SF-295 is 32.1 µM (inactive); in the assay on EKVX it was 52.7 µM (inactive); in the assay with HOP-62, 29.9 µM (inactive); in the assay with PC-3 it was > 100 µM (inactive); with SF-539, 35.4 µM (inactive); in the assay on UO-31 it was 78.2 µM (inactive). The GI50 with NCI-H460 was > 100 µM (inactive); in the assay on MDA-MB-231, > 100 µM (inactive); in the assay on RXF 393 it was 20.6 µM (inactive); in the assay with T47D, > 100 µM (inactive); with HCT-15, greater than 100 µM; in the assay with SW-620, > 100 µM (inactive). Besides, the GI50 with MCF7 was 34.8 µM (inactive).

As for `CSc1nc(=O)c2nc(-c3cccs3)c(-c3cccs3)nc2n1C`, the GI50 was > 100 µM (inactive) with SR; > 100 µM (inactive) in the assay on HCT-116; > 100 µM (inactive) in the assay on SK-MEL-5; 43.1 µM (inactive) in the assay with SK-MEL-28; > 100 µM (inactive) with MOLT-4; 32.7 µM (inactive) with SF-295. The GI50 in the assay on EKVX is 27.6 µM (inactive); in the assay with HOP-62 it was 20 µM (inactive); with PC-3, 40.9 µM (inactive); with UO-31, 33.7 µM (inactive); in the assay with NCI-H460, > 100 µM (inactive); in the assay with MDA-MB-231, 97.7 µM (inactive). In addition, the GI50 in the assay on RXF 393 is 18.7 µM (inactive); in the assay on T47D it was 18.7 µM (inactive); in the assay with HCT-15 it was greater than 100 µM; in the assay on SW-620 it was > 100 µM (inactive); in the assay on MCF7, 24 µM (inactive).

With `O=[N+]([O-])c1ccc2c(c1)nc1n2C(c2c(F)cccc2F)SC1` (centres undefined), the GI50 in the assay on OVCAR-3, in the assay on SR, in the assay with HCT-116, in the assay with SK-MEL-5, in the assay with SK-MEL-28 and in the assay with MOLT-4 was > 100 µM (inactive) in each case. Besides, the GI50 in the assay on SF-295, with EKVX, in the assay with HOP-62, in the assay on PC-3, in the assay on SF-539 and in the assay on NCI-H460 was > 100 µM (inactive) each time. In addition, the GI50 in the assay with MDA-MB-231 was > 100 µM (inactive); in the assay with RXF 393 it was > 100 µM (inactive); in the assay with T47D, > 100 µM (inactive); with HCT-15, greater than 100 µM; in the assay with SW-620 it was > 100 µM (inactive); in the assay with MCF7, > 100 µM (inactive).

As for `O=C1CCCC1CN1CCCC1` (centres undefined), the GI50 is 14.2 µM (inactive) in the assay with OVCAR-3; 0.194 µM (active) in the assay on SR; 3.44 µM (inactive) with HCT-116; 18 µM (inactive) in the assay with SK-MEL-5; 13.6 µM (inactive) in the assay with SK-MEL-28; 0.206 µM (active) in the assay on MOLT-4. The GI50 is > 100 µM (inactive) with SF-295; 18.1 µM (inactive) with EKVX; > 67 µM (inactive) with HOP-62; 18.9 µM (inactive) in the assay with PC-3; 18.8 µM (inactive) with SF-539; 7.31 µM (inactive) in the assay on UO-31. For the same compound, the GI50 with NCI-H460 was 42.4 µM (inactive); in the assay with MDA-MB-231 it was 15.5 µM (inactive); with T47D it was 2.75 µM (inactive); in the assay on HCT-15, 2 µM; with SW-620 it was 5.24 µM (inactive); with MCF7, 2.2 µM (inactive). Besides, the GI50 with NCI-H226 was 46.2 µM (inactive).

For `CC(C)Nc1[nH]c(C(=O)c2ccccc2)c(N)c1C(=S)Nc1ccccc1`, the GI50 is > 100 µM (inactive) with OVCAR-3; 43.5 µM (inactive) in the assay with SR; 36.1 µM (inactive) in the assay with HCT-116; 28.9 µM (inactive) in the assay with SK-MEL-5; 17.4 µM (inactive) in the assay with SK-MEL-28; 80.9 µM (inactive) with MOLT-4. The GI50 with SF-295 is > 100 µM (inactive); in the assay with EKVX, > 100 µM (inactive); with HOP-62, > 100 µM (inactive); with PC-3 it was > 100 µM (inactive); in the assay with SF-539 it was > 100 µM (inactive); in the assay with UO-31, 77.1 µM (inactive). Moreover, the GI50 was 57 µM (inactive) with NCI-H460; 28.5 µM (inactive) with MDA-MB-231; 69.8 µM (inactive) with T47D; 32.8 µM in the assay on HCT-15; 47 µM (inactive) in the assay with SW-620; 40.4 µM (inactive) in the assay on MCF7. The GI50 in the assay on NCI-H226 is 41.3 µM (inactive).

In the case of `CC(=O)OCC1OC(n2cnc(C(N)=S)c2N)C(OC(C)=O)C1OC(C)=O` (centres undefined), the GI50 in the assay with OVCAR-3, with SR, with HCT-116, in the assay with SK-MEL-5, with SK-MEL-28 and in the assay on MOLT-4 was > 100 µM (inactive) each time. The GI50 in the assay with SF-295, in the assay on HOP-62, in the assay on PC-3, in the assay with SF-539, with UO-31 and with NCI-H460 was > 100 µM (inactive) each time. Also, the GI50 was > 100 µM (inactive) in the assay on MDA-MB-231; > 100 µM (inactive) in the assay on T47D; greater than 100 µM in the assay on HCT-15; > 100 µM (inactive) in the assay with SW-620; > 100 µM (inactive) in the assay on MCF7; > 100 µM (inactive) with NCI-H226.

Regarding `COc1ccc2c(c1)[C@@]13CCCC[C@H]1[C@@H](C2)N(C)CC3=O`, the GI50 in the assay with OVCAR-3 is 17.4 µM (inactive); in the assay on SR, 12.4 µM (inactive); in the assay with HCT-116, 16.2 µM (inactive); with SK-MEL-5, 22.6 µM (inactive); in the assay with SK-MEL-28 it was 16.1 µM (inactive); with MOLT-4 it was 19.7 µM (inactive). The GI50 is 64.9 µM (inactive) in the assay with SF-295; 18.5 µM (inactive) in the assay on EKVX; > 100 µM (inactive) with HOP-62; 14.8 µM (inactive) in the assay with PC-3; 18.7 µM (inactive) with UO-31; 20.8 µM (inactive) with NCI-H460. Further, the GI50 in the assay with MDA-MB-231 is 18.5 µM (inactive); in the assay with RXF 393, 15.3 µM (inactive); in the assay on T47D, 17.5 µM (inactive); with HCT-15, 17.8 µM; in the assay with MCF7, 18.3 µM (inactive); with NCI-H226 it was 21.3 µM (inactive).

Consider `Cc1ccc(/N=C2/S/C(=C3/CCC=C3N3CCOCC3)N(c3ccc(Cl)cc3)/C2=N/c2ccc(C)cc2)cc1`, for which the GI50 in the assay with SR, in the assay on HCT-116, with SK-MEL-5, in the assay on SK-MEL-28, in the assay on MOLT-4 and with EKVX was > 100 µM (inactive) each time. The GI50 with HOP-62, in the assay on PC-3, with UO-31, with NCI-H460, with MDA-MB-231 and in the assay on RXF 393 was > 100 µM (inactive) in each case. Besides, the GI50 in the assay on T47D was > 100 µM (inactive); in the assay on HCT-15, greater than 100 µM; in the assay on SW-620 it was > 100 µM (inactive); with MCF7, > 100 µM (inactive); with NCI-H226, > 100 µM (inactive).

Consider `CCn1cc(C(=O)O)c(=O)c2ccc(C)nc21` [NALIDIXIC ACID], for which the GI50 with OVCAR-3, in the assay with SR, with HCT-116, in the assay with SK-MEL-5, with SK-MEL-28 and in the assay with MOLT-4 was > 100 µM (inactive) in each case. The GI50 with SF-295 was > 100 µM (inactive); in the assay on EKVX, > 100 µM (inactive); in the assay on HOP-62 it was > 100 µM (inactive); in the assay with PC-3 it was > 100 µM (inactive); with SF-539 it was > 100 µM (inactive); in the assay with UO-31 it was 67 µM (inactive). The GI50 with NCI-H460 was > 100 µM (inactive); in the assay with MDA-MB-231, > 100 µM (inactive); with T47D it was > 100 µM (inactive); with HCT-15 it was greater than 100 µM; in the assay with SW-620 it was > 100 µM (inactive); in the assay with MCF7 it was > 100 µM (inactive). Further, the GI50 with NCI-H226 is > 100 µM (inactive).
